Molecular target: T1, K-Ras G12C (Homo sapiens, UniProt P01116, G12C)
T1 construct: This protein contained 188 amino acids in total, including an N-terminal 6-Histidine tag; made in house; host or cells: E. coli BL21
Test: CAF assay (% CAF; method in Example 7, not in this part)
Format: binding

% CAF @ 10 uM, 1h (10 uM, 1 h, Table 3) | % CAF @ 10 uM, 1h (10 uM compound, 1 h incubation) | Structure (SMILES)
96% |  | C=CC(=O)N1CCN(c2nc(=O)n3c4c(c(-c5ccc(F)cc5F)c(Cl)cc24)SCC3)[C@@H](C)C1 [Example 179, (S)-7-((S)-4-acryloyl-2-methylpiperazin-1-yl)-9-chloro-10-(2,4-difluorophenyl)-2,3-dihydro-5H-[1,4]thiazino[2,3,4-ij]quinazolin-5-one]
94.8% |  | C=CC(=O)N1CCN(c2nc(=O)n3c4c(c(-c5c(F)cc(F)cc5F)c(Cl)cc24)SC[C@H]3CC2CCN(C)CC2)[C@@H](C)C1 [Example 91, (R)-7-((S)-4-acryloyl-2-methylpiperazin-1-yl)-9-chloro-3-((1-methylpiperidin-4-yl)methyl)-10-(2,4,6-trifluorophenyl)-2,3-dihydro-5H-[1,4]thiazino[2,3,4-ij]quinazolin-5-one]
51.9% |  | C=CC(=O)N1CCN(c2nc(=O)n3c4c(c(-c5ccc(F)cc5F)c(Cl)cc24)SCC3)CC12CN(C)C2=O (stereo not drawn) [Example 133, 7-(5-acryloyl-2-methyl-1-oxo-2,5,8-triazaspiro[3.5]nonan-8-yl)-9-chloro-10-(2,4-difluorophenyl)-2,3-dihydro-5H-[1,4]thiazino[2,3,4-ij]quinazolin-5-one]
 | 96.2% | C=CC(=O)N1[C@H](C)CN(c2nc(=O)n3c4c(c(-c5ccc(F)cc5F)c(C(F)(F)F)cc24)SC[C@@H]3COC)C[C@@H]1C [Example 513, (3S)-7-((3S,5R)-4-acryloyl-3,5-dimethylpiperazin-1-yl)-10-(2,4-difluorophenyl)-3-(methoxymethyl)-9-(trifluoromethyl)-2H-[1,4]thiazino[2,3,4-ij]quinazolin-5(3H)-one]
 | 94.3% | C=CC(=O)N1[C@H](C)CN(c2nc(=O)n3c4c(c(-c5ccc(F)cc5F)c(C(F)(F)F)cc24)SC[C@@H]3COC)C[C@@H]1C (atropisomer, axis not shown) [Example 546, (3S,10S)-7-((3S,5R)-4-acryloyl-3,5-dimethylpiperazin-1-yl)-10-(2,4-difluorophenyl)-3-(methoxymethyl)-9-(trifluoromethyl)-2,3-dihydro-5H-[1,4]thiazino[2,3,4-ij]quinazolin-5-one]
 | 82.8% | C=CC(=O)N1CCN(c2nc(=O)n3c4c(c(-c5cc(Cl)c(F)cc5F)c(Cl)cc24)SC[C@@H]3CC2CCN(C3COC3)CC2)[C@@H](C)C1 [Example 426, (3S)-7-((S)-4-acryloyl-2-methylpiperazin-1-yl)-9-chloro-10-(5-chloro-2,4-difluorophenyl)-3-((1-(oxetan-3-yl)piperidin-4-yl)methyl)-2H-[1,4]thiazino[2,3,4-ij]quinazolin-5(3H)-one]
 | 22.6% | C=CC(=O)N1CCN(c2nc(=O)n3c4c(c(-c5cc(F)c(F)cc5F)c(Cl)cc24)SC[C@H]3COCOC)[C@@H](C)C1 [Example 466, (3R)-7-((S)-4-acryloyl-2-methylpiperazin-1-yl)-9-chloro-3-((methoxymethoxy)methyl)-10-(2,4,5-trifluorophenyl)-2H-[1,4]thiazino[2,3,4-ij]quinazolin-5(3H)-one]
 | 93.4% | C=CC(=O)N1C[C@H](C)N(c2nc(=O)n3c4c(c(-c5cccc6cnn(C)c56)c(Cl)cc24)SC[C@@H]3CN2CCN(CC(F)F)CC2)C[C@H]1C (atropisomer, axis not shown) [Example 569, (3S,10R)-7-((2S,5R)-4-acryloyl-2,5-dimethylpiperazin-1-yl)-9-chloro-3-((4-(2,2-difluoroethyl)piperazin-1-yl)methyl)-10-(1-methyl-1H-indazol-7-yl)-2,3-dihydro-5H-[1,4]thiazino[2,3,4-ij]quinazolin-5-one]
3.6% |  | CN(C)C/C=C/C(=O)N1CCN(c2nc(=O)n3c4c(c(-c5ccc(F)cc5F)c(Cl)cc24)SCC3)C[C@H]1C#N [Example 121, (2S)-4-(9-chloro-10-(2,4-difluorophenyl)-5-oxo-2,3-dihydro-5H-[1,4]thiazino[2,3,4-ij]quinazolin-7-yl)-1-((E)-4-(dimethylamino)but-2-enoyl)piperazine-2-carbonitrile]
